Test results taken from US20240261243A1, “NITRIC OXIDE DONORS, COMPOSITIONS, AND METHODS OF USE” (priority 2020, published 2024).
In brackets after ≈: the same amount, converted by molar mass. Marks after values point to notes of the source that are not given here.

What was measured:
[1] = tested on: P. aeruginosa (PAK); test: Combination MIC/MBC assay, BIOC76 with fixed gallium citrate; assay type: cell-based, Pseudomonas aeruginosa
Protocol: Combination MIC/MBC assays are useful when you want to look at only a few concentrations of one compound (Gallium citrate) combined with many concentrations of the second compound (BIOC76).
This method also allows us to see the change in both the MIC and MBC of a drug when in combination with another drug. Checkerboard assays only allow us to see changes in the MIC's.
Test articles are added to a 96-well plate so that when a 2× bacterial culture (prepared to 10^6 CFU/ml) is added, the final concentration in all wells was 1×.
All test articles are prepared at 4×→diluted 1:1 when other TA is added (2×) and diluted 1:1 again to 1× when bacteria are added.
TA #1 (Gallium citrate) is prepared and added to entire rows of a plate at a single concentration.
TA #2 (BIOC76) in then prepared and serially diluted in TA #1, so there are 2-fold dilutions of TA #2 combined with a single concentration of TA #1.
Plates were incubated at 37° C. for 18-24 h.
The ΔMIC/IBC is used to show the change in the MIC/IBC of BIOC76 when in combination with Gallium citrate (compared to when BIOC76 is used alone).
ΔMIC/MBC is the fold-decrease in BIOC76 concentration as a result of the combination.
We concluded BIOC76 and gallium citrate maintain synergistic activity so long as the gallium concentration is at least about 0.005 to about 0.02 mg/ml. In this experimental, we set up MIC/MBC assay and serially diluted BIOC76 in rows with fixed concentrations of gallium citrate. […] The results are shown in FIG. 6, and in the following tables: […]

[2] = tested on: P. aeruginosa (PAK); test: Time-kill assay in CAMHB at 37° C.; assay type: cell-based, Pseudomonas aeruginosa; details: 4 mg/ml BIOC76 alone, broth
Protocol: In this study, we established the viability of P. aeruginosa in a broth at 37° C. when exposed to BIOC76 alone compared to BIOC76+gallium citrate. […] To conduct this experiment, we suspended P. aeruginosa (PAK) in CAMHB to a final concentration of 10^6 CFU/ml. Bacteria were exposed to BIOC76, GaCi, or BIOC76+GaCi and incubated at 37° C.

[3] = tested on: P. aeruginosa biofilms; test: Biofilm eradication (MBEC) on peg lid
[4] = tested on: P. aeruginosa strain PAK
Protocol: All test articles are prepared at 4×→diluted 1:1 when other TA is added (2×), and diluted 1:1 again to 1× when bacteria are added
The Checkerboard assay (described herein) was used with a hepta-substituted cyclodextrin-based NO donor (hereinafter referred to as BIOC76) having approximately ˜4.7 μmol NO/mg dry powder.
Experimental Design: The MIC of BIOC76 and Gallium nitrate individually, then set up a checkerboard assay testing 49 combinations of BIOC76 and Gallium nitrate concentrations against 10^6 CFU/ml P. aeruginosa strain PAK. Plates were incubated at 37° C. for 18-24 h, and growth was assessed visually.

[5] = tested on: P. aeruginosa strains; test: MIC/MBC of BIOC76 and gallium citrate alone against 21 strains; assay type: cell-based, Pseudomonas aeruginosa; details: for MBC Rep 1 / MIC Rep 1: alone
Text: Determined the MIC of each test article individually against the strains being tested using the CLSI MIC/MBC method.
In this study, we established the MIC/MiBC's of BIOC76 and gallium citrate alone against each of 21 P. aeruginosa strains. […] The activity of both compounds is also strain-dependent. The results are as follows (the species for each strain is Pseudomonas aeruginosa: […]

[6] = strain N0049 (PAK), with 0.0156 mg/ml GaCi
[7] = strain N0049 (PAK), with 0.0325 mg/ml GaCi
[8] = strain N0049 (PAK), with 0.065 mg/ml GaCi
[9] = strain N0049 (PAK), with 0.125 mg/ml GaCi
[10] = strain N0049 (PAK), with 0.25 mg/ml GaCi
[11] = strain N0049 (PAK), with 0.5 mg/ml GaCi
[12] = strain N0049 (PAK), with 1 mg/ml GaCi
[13] = strain N0049 (PAK), with 2 mg/ml GaCi

O=NN(O)N(CCO)CC1OC2OC3C(CN(CCO)N(O)N=O)OC(OC4C(CN(CCO)N(O)N=O)OC(OC5C(CN(CCO)N(O)N=O)OC(OC6C(CN(CCO)N(O)N=O)OC(OC7C(CN(CCO)N(O)N=O)OC(OC8C(CN(CCO)N(O)N=O)OC(OC1C(O)C2O)C(O)C8O)C(O)C7O)C(O)C6O)C(O)C5O)C(O)C4O)C(O)C3O (centres unmarked) [BIOC76]
MIC BIOC76 ([1]; PAK, alone): 2000 µg/mL
Combo MIC BIOC76 ([1]; PAK, with 0.0039 mg/ml GaCi): 2000 µg/mL
Combo MIC BIOC76 ([1]; PAK, with 0.0078 mg/ml GaCi): 1000 µg/mL
Combo MIC BIOC76 ([1]; PAK, with 0.0156 mg/ml GaCi): 250 to 500 µg/mL
Combo MIC BIOC76 ([1]; PAK, with 0.0313 mg/ml GaCi): 125 µg/mL
MBC BIOC76 alone ([1]; strain N0049 (PAK)): 4000 µg/mL
MIC BIOC76 alone ([1]; strain N0049 (PAK)): 2000 µg/mL
Combo MBC BIOC76 [1, 6]: 4 mg/mL
Δ MBC [1, 6]: 0 fold-decrease
Δ MIC [1, 6]: 4 fold-decrease
Combo MBC BIOC76 [1, 7]: 4 mg/mL
Combo MIC BIOC76 [1, 7]: 125000 µg/mL
Δ MBC [1, 7]: 0 fold-decrease
Δ MIC [1, 7]: 16 fold-decrease
Combo MBC BIOC76 [1, 8]: 4 mg/mL
Combo MIC BIOC76 [1, 8]: <60 µg/mL
Δ MBC [1, 8]: 0 fold-decrease
Combo MBC BIOC76 [1, 9]: 4 mg/mL
Combo MIC BIOC76 [1, 9]: <60 µg/mL
Δ MBC [1, 9]: 0 fold-decrease
Combo MBC BIOC76 [1, 10]: 2 mg/mL
Combo MIC BIOC76 [1, 10]: <60 µg/mL
Δ MBC [1, 10]: 2 fold-decrease
Combo MBC BIOC76 [1, 11]: 2 mg/mL
Combo MIC BIOC76 [1, 11]: <60 µg/mL
Δ MBC [1, 11]: 2 fold-decrease
Combo MBC BIOC76 [1, 12]: 4* mg/ml
Combo MIC BIOC76 [1, 12]: <60 µg/mL
Δ MBC [1, 12]: 0* fold-decrease
Combo MBC BIOC76 [1, 13]: 2 mg/mL
Combo MIC BIOC76 [1, 13]: <60 µg/mL
Δ MBC [1, 13]: 2 fold-decrease
bacterial survival over 24 h [2]: can recover after 24 h
MBEC of BIOC76 ([3]; PAK (N0049), 3-log reduction in biofilm): 4 mg/mL
effectiveness against P. aeruginosa biofilms ([3]; biofilms grown under aerobic conditions): effective
MIC BIOC76 alone [4]: 1000 µg/mL (≈ 539 µM)
MIC BIOC76 combo ([4]; in combination with Ga(NO3)3): 125 µg/mL
mode of activity alone (conclusion) ([5]; 21 P. aeruginosa strains): largely bacteriostatic
MBC Rep 1 ([5]; strain N0047 (AR-BANK #103)): 8000 µg/mL
MIC Rep 1 ([5]; strain N0047 (AR-BANK #103)): 2000 µg/mL
MBC Rep 1 ([5]; strain N0048 (ATCC 19143)): 2000 µg/mL
MIC Rep 1 ([5]; strain N0048 (ATCC 19143)): 500 µg/mL
MBC Rep 1 ([5]; strain N0049 (PAK)): 4000 µg/mL
MIC Rep 1 ([5]; strain N0049 (PAK)): 2000 µg/mL
MBC Rep 1 ([5]; strain N0050 (AR-BANK #0095)): 8000 µg/mL
MIC Rep 1 ([5]; strain N0050 (AR-BANK #0095)): 2000 µg/mL
MBC Rep 1 ([5]; strain N0051 (AU32077)): 4000 µg/mL
MIC Rep 1 ([5]; strain N0051 (AU32077)): 1000 µg/mL
MBC Rep 1 ([5]; strain N0052 (AU25834)): 2000 µg/mL
MIC Rep 1 ([5]; strain N0052 (AU25834)): 1000 µg/mL
MBC Rep 1 ([5]; strain N0053 (AU30524)): 16000 µg/mL
MIC Rep 1 ([5]; strain N0053 (AU30524)): 4000 µg/mL
MBC Rep 1 ([5]; strain N0054 (AU26773)): 16000 µg/mL
MIC Rep 1 ([5]; strain N0054 (AU26773)): 2000 µg/mL
MBC Rep 1 ([5]; strain N0055 (AU22725)): >8000 µg/mL
MIC Rep 1 ([5]; strain N0055 (AU22725)): 1000 µg/mL
MBC Rep 1 ([5]; strain N0056 (AU22505)): 16000 µg/mL
MIC Rep 1 ([5]; strain N0056 (AU22505)): 8000 µg/mL
MBC Rep 1 ([5]; strain N0057 (AU35400)): 32000 µg/mL
MIC Rep 1 ([5]; strain N0057 (AU35400)): 8000 µg/mL
MBC Rep 1 ([5]; strain N0058 (AU32543)): 8000 µg/mL
MIC Rep 1 ([5]; strain N0058 (AU32543)): 2000 µg/mL
MBC Rep 1 ([5]; strain N0059 (AR-BANK #0054)): >16000 µg/mL
MIC Rep 1 ([5]; strain N0059 (AR-BANK #0054)): 2000 µg/mL
MBC Rep 1 ([5]; strain N0069 (AR-BANK #0090)): >16000 µg/mL
MIC Rep 1 ([5]; strain N0069 (AR-BANK #0090)): 2000 µg/mL
MBC Rep 1 ([5]; strain N0070 (AR-BANK #0092)): >16000 µg/mL
MIC Rep 1 ([5]; strain N0070 (AR-BANK #0092)): 2000 µg/mL
MBC Rep 1 ([5]; strain N0071 (AR-BANK #0100)): >16000 µg/mL
MIC Rep 1 ([5]; strain N0071 (AR-BANK #0100)): 2000 µg/mL
MBC Rep 1 ([5]; strain N0072 (AR-BANK #0105)): >16000 µg/mL
MIC Rep 1 ([5]; strain N0072 (AR-BANK #0105)): 2000 µg/mL
MBC Rep 1 ([5]; strain N0079 (AR-BANK #0108)): >16000 µg/mL
MIC Rep 1 ([5]; strain N0079 (AR-BANK #0108)): 2000 µg/mL
MBC Rep 1 ([5]; strain N0080 (AR-BANK #0110)): >16000 µg/mL
MIC Rep 1 ([5]; strain N0080 (AR-BANK #0110)): 2000 µg/mL
MBC Rep 1 ([5]; strain N0081 (AR-BANK #0111)): >16000 µg/mL
MIC Rep 1 ([5]; strain N0081 (AR-BANK #0111)): 2000 µg/mL
MBC Rep 1 ([5]; strain N0099 (ATCC 29260)): 8000 µg/mL
MIC Rep 1 ([5]; strain N0099 (ATCC 29260)): 2000 µg/mL
